Measurements taken from US9605000B2, “Spiro azetidine isoxazole derivatives and their use as SSTR antagonists” (Takeda Pharmaceutical Company Limited, priority 2013, dated 2017).

Biological target: T1, human SSTR5 (Homo sapiens, UniProt P35346)
T1 construct: expressed in transfected cells
Assay: Human SSTR5 antagonist activity using intracellular cAMP concentration as indicator (somatostatin 14, Test Example 1)
Type: cell-based
Settings: 1 μM test compound; 1 nM somatostatin 14 and 0.3 μM forskolin; CHO (dhfr-) cells expressing human SSTR5; HTRF cAMP; read-out: Inhibition rate (%) with respect to SSTR5 in concentration of 1 μM
Description: Evaluation of Human SSTR5 Antagonist Activity Using an Intracellular cAMP Concentration as an Indicator
Measurement of the intracellular cAMP concentration was performed using a HTRF cAMP dynamic 2 kit (manufactured by Cisbio). A test compound which was diluted with an assay buffer (5 mM HEPES (pH 7.5) (manufactured by Invitrogen Corp.), 0.1% Fatty-acid free BSA (manufactured by Sigma-Aldrich, Inc.), HESS (manufactured by Invitrogen Corp.) containing 500 μM IBMX (manufactured by Wako Pure Chemical Industries, Ltd) was added by 2 μL/well to a 384 well white plate (manufactured by Greiner) such that a final concentration become 1 μM. A frozen stock, which was stably expressed dihydrofolate reductase-deficient (dhfr-) CHO cells in which human SSTR5 gene (Accession No. NM001053), was melted in a thermostatic chamber at 37° C., and it was suspended on a medium of subculture (medium prepared from MEM alpha (Nikken Biomedical Institute Ltd.), 10% dialyzed serum (manufactured by Gemini Co., Ltd.) and 50 μg/mL gentamicin (manufactured by Invitrogen Corp.). After centrifuging the cell suspension, the cell suspension was resuspended using the assay buffer, and the resultant was added to each well by 2 μL/well to be 3760 cells/well. After a test compound and cells were mixed, the resultant was incubated for 15 minutes. An assay buffer which contains 1 nM of somatostatin 14 (manufactured by PEPTIDE INSTITUTE, INC.) and 0.3 μM of forskolin (manufactured by Wako Pure Chemical Industries, Ltd) as a final concentration was added by […], and incubation was performed for 30 minutes at room temperature. Each of cAMP-d2 and anti-cAMP-cryptate was added by 3 μL/well, it was allowed to stand for 60 minutes at room temperature, and FRET (Fluorescence resonance energy transfer) intensity was measured using Multi-label reader Envision (manufactured by Perkin Elmer Inc.). Using the calibration curve prepared from the FRET intensity of well groups in which cAMP as arbitrary concentration was added to any assay buffer, FRET intensity of wells in which a test compound group was added was converted into cAMP concentration. Inhibitory activity of compounds was calculated using the following equation. Inhibitory activity (%)=(C−B)/(A−B)×100 A: cAMP concentration calculated from wells in which 0.3 μM of forskolin is added B: cAMP concentration calculated from wells in which 0.3 μM of forskolin and 1 nM of somatostatin 14 are added C: cAMP concentration wells in which 0.3 μM of forskolin, 1 nM of somatostatin 14 and 1 μM of test compound are added
Inhibition rates (%) are described in Table 2 with respect to SSTR5 in concentration of 1 μM of a test compound.

T1 sequence (P35346 whole entry): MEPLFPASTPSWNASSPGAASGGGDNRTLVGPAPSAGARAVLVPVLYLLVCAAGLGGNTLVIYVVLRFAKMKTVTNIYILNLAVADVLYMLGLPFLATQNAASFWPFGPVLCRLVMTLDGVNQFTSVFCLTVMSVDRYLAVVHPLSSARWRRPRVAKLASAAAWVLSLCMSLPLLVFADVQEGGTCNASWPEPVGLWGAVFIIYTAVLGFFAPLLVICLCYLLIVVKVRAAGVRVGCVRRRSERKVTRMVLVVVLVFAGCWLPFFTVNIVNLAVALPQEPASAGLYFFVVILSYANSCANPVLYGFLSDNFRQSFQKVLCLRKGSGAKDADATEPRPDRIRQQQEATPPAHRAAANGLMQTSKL

| inhibition at 1 µM | Compound |
| --- | --- |
| 116% | CCOc1nc(CN2CC3(CC(N4CCC(C)(C(=O)O)CC4)=NO3)C2)cc(C2CC2)c1-c1ccc(F)cc1 [Example 210, 1-(2-((4-Cyclopropyl-6-ethoxy-5-(4-fluorophenyl)pyridin-2-yl)methyl)-5-oxa-2,6-diazaspiro[3.4]oct-6-en-7-yl)-4-methylpiperidine-4-carboxylic acid] |
| 85% | COc1cc(C2CC(F)(F)C2)c(C2CC2)cc1CN1CC2(CC(N3CCC(C)(C(=O)O)CC3)=NO2)C1 [Example 185] |
| 111% | CCOc1cc(-c2ccc(F)cc2)c(C2CC2)cc1CN1CC2(CC(N3CCC(C(=O)O)CC3)=NO2)C1 [Example 215, 1-(2-((2-Cyclopropyl-5-ethoxy-4′-fluorobiphenyl-4-yl)methyl)-5-oxa-2,6-diazaspiro[3.4]oct-6-en-7-yl)piperidine-4-carboxylic acid] |
| 112% | CCCOc1cc(CN2CC3(CC(N4CCC(C)(C(=O)O)CC4)=NO3)C2)cc(C2CC2)c1-c1ccccc1F [Example 188, 1-(2-((2-Cyclopropyl-2′-fluoro-6-propoxybiphenyl-4-yl)methyl)-5-oxa-2,6-diazaspiro[3.4]oct-6-en-7-yl)-4-methylpiperidine-4-carboxylic acid] |
| 101% | CCOc1nc(-c2ccc(F)cc2)c(C2CC2)cc1CN1CC2(CC(N3CCC(C)(C(=O)O)CC3)=NO2)C1 [Example 202, 1-(2-((5-Cyclopropyl-2-ethoxy-6-(4-fluorophenyl)pyridin-3-yl)methyl)-5-oxa-2,6-diazaspiro[3.4]oct-6-en-7-yl)-4-methylpiperidine-4-carboxylic acid] |
| 101% | CC(C)Oc1cc(CN2CC3(CC(N4CCC(C)(C(=O)O)CC4)=NO3)C2)cc(C2CC2)c1-c1ccc(F)cc1 [Example 206, 1-(2-((2-Cyclopropyl-4′-fluoro-6-isopropoxybiphenyl-4-yl)methyl)-5-oxa-2,6-diazaspiro[3.4]oct-6-en-7-yl)-4-methylpiperidine-4-carboxylic acid] |

The remaining lines, values behind:

| Compound | inhibition at 1 µM |
| --- | --- |
| CC1(C(=O)O)CCN(C2=NOC3(C2)CN(Cc2cc(OCC4CC4(F)F)c(-c4ccc(F)cc4)c(C4CC4)c2)C3)CC1 (stereo not drawn) [Example 104, 1-(2-((2-Cyclopropyl-6-((2,2-difluorocyclopropyl)methoxy)-4′-fluorobiphenyl-4-yl)methyl)-5-oxa-2,6-diazaspiro[3.4]oct-6-en-7-yl)-4-methylpiperidine-4-carboxylic acid] | 100% |
| CCOc1cc(CN2CC3(CC(N4CCC(C)(C(=O)O)CC4)=NO3)C2)cc(C#N)c1-c1ccc(F)cc1 [Example 97, 1-(2-((2-Cyano-6-ethoxy-4′-fluorobiphenyl-4-yl)methyl)-5-oxa-2,6-diazaspiro[3.4]oct-6-en-7-yl)-4-methylpiperidine-4-carboxylic acid] | 94% |
| CCOc1cc(CN2CC3(CC(N4CCC(C)(C(=O)O)CC4)=NO3)C2)cc(C2(C)CC2(F)F)c1-c1ccc(F)cc1 (stereo not drawn) [Example 163, 1-(2-((2-(2,2-Difluoro-1-methylcyclopropyl)-6-ethoxy-4′-fluorobiphenyl-4-yl)methyl)-5-oxa-2,6-diazaspiro[3.4]oct-6-en-7-yl)-4-methylpiperidine-4-carboxylic acid] | 83% |
| CCOc1cc(CN2CC3(CC(N4CCC(C(=O)O)CC4)=NO3)C2)cc(OCC)c1-c1ccc(F)cc1 [Example 2, 1-(2-((2,6-Diethoxy-4′-fluorobiphenyl-4-yl)methyl)-5-oxa-2,6-diazaspiro[3.4]oct-6-en-7-yl)piperidine-4-carboxylic acid] | 120% |
| CCOc1cc(CN2CC3(CC(N4CCC(C)(C(=O)O)CC4)=NO3)C2)cc(OCC(F)(F)F)c1-c1ccc(F)cc1 [Example 17] | 83% |
| CCOc1cc(CN2CC3(CC(N4CCC(C)(C(=O)O)CC4)=NO3)C2)cc(C2CCC2)c1-c1ccc(F)cc1 [Example 107, 1-(2-((2-Cyclobutyl-6-ethoxy-4′-fluorobiphenyl-4-yl)methyl)-5-oxa-2,6-diazaspiro[3.4]oct-6-en-7-yl)-4-methylpiperidine-4-carboxylic acid] | 111% |
